Results published in patent US20220211732A1, “PREBIOTIC COMPOSITIONS” (Evonik Operations GmbH, priority 2019, published 2022).

Key:
[1] = in vivo; cited from earlier work
[2] = system: human intestinal microbiota; assay: SCFA production after omega-3 amino acid salts and controls (Example 2); assay type: cell-based; conditions: salts 1.4 mg/ml, FFA 0.96, Lys 0.49, Arg 0.52, Orn 0.5 mg/ml; for Acetate, change compared to control / Propionate, change compared to control / n-Butyrate, change compared to control: triplicates
Experimental: (§1) To determine the effect of a EPA/DHA lysine salt (EPA/DHA-Lys) on adult colonic microbiota, an intestinal screening model was used (I-screen, TNO, the Netherlands). Therefore, the I-screen model was inoculated with standard human adult fecal microbiota material, which consisted of pooled fecal donations from six healthy adult volunteers (Caucasian, European lifestyle and nutrition). The fecal material was mixed and grown in a fed-batch fermenter for 40 hours to create a standardized microbiota as described previously.
(§2) The intestinal microbiota was cultured in vitro in modified standard ileal efflux medium (SIEM), the composition of which was described by Minekus et al.. All components were supplied by Trititium Microbiology (Veldhoven, The Netherlands). The pH of the medium was adjusted to 5.8.
(§3) For the I-screen fermentations, the pre-cultured standardized fecal inoculum was diluted 50 times in modified SIEM. EPA/DHA-Lys was introduced into the I-screen to final concentrations of 1.4 mg/ml and 1.5 mg/ml, respectively; omega-3 ethyl ester and fish oil at 1.4 mg/ml each. Inulin was added as a control at a final concentration of 4 mg/ml. […] All experiments were carried out in triplicates.
(§4) For the analysis of short-chain fatty acids in exposed material from the I-screen, samples were centrifuged (˜4000 g, 5 min), clear supernatant was filter sterilized (0.45 μm) and a mixture of formic acid (20%), methanol and 2-ethyl butyric acid (internal standard, 2 mg/ml in methanol) was added.
The effects of different omega-3 amino acid salts omega-3-lysine (omega-3-lys), omega-3-arginine (omega-3-arg) and omega-3-ornithine (omega-3-orn) and their respective controls (free fatty acids (FFA), amino acids lysine (lys), arginine (arg) and ornithine (orn)) on SCFA production by an intestinal microbiota were analyzed.

[3] = system: human fecal microbiota 2; assay: TIM-2 in vitro colon model, SCFA production, microbiota 2 (Example 6); assay type: cell-based; conditions: for Cumulative production of acetate / Cumulative production of butyrate / Cumulative production of propionate: lumen and dialysate, duplicates
Source text: TIM-2 is an abbreviation of TNO's in vitro model-2, an advanced dynamic, computer-controlled in vitro model of the adult human colon. TIM-2 simulates to a high degree the successive dynamic processes in the colon and is predictive for what happens in human individuals. The following in vivo conditions are simulated in this model: body temperature, pH in the lumen, composition and rate of secretion, delivery of a pre-digested substrate from the ‘ileum’ (SIEM), mixing and transport of the intestinal contents, absorption of water and microbial metabolites and presence of a complex, high density, metabolically active, anaerobic fecal microbiota of human origin.
The model was set-up and inoculated with the microbiota on the first day. Following an overnight adaptation period in SIEM, the test-products were fed at final concentrations of 1.4 mg/ml EPA/DHA-Lys or 1 mg/ml L-rhamnose in SIEM during an intervention period of 72 hrs. Cultivation in SIEM without any additional substance served as control condition.
Samples were taken from the lumen and the dialysate every 24 hrs (t0, t24, t48 and t72) to study the metabolic activity of the gut microbiota (SCFA production) and changes in composition of the gut microbiota (16S rRNA gene analysis).
Samples were analyzed for SCFA by ion-chromatography.
A second TIM-2 study was performed, using conditions as described under Example 3 but applying a different human fecal microbiota (termed microbiota 2), to assess whether the observed effects are dependent on the initial microbiota composition.
T1=EPA/DHA-Lys (ω-3); T2=L-rhamnose.

[4] = cited from earlier work
[5] = system: human fecal microbiota 1; assay: TIM-2 in vitro colon model, SCFA production, microbiota 1 (Example 3); assay type: cell-based; conditions: for Cumulative production of acetate / Cumulative production of butyrate / Cumulative production of propionate: lumen and dialysate, duplicates
Source text: To confirm the results for omega-3 amino acid salts, using omega-3 lysine as an example, an additional, independent and more advanced model of fermentation by the human colonic microbiota was applied, the TIM-2 model. Next to omega-3 lysine the prebiotic carbohydrate L-rhamnose was also applied. TIM-2 is an abbreviation of TNO's in vitro model-2, an advanced dynamic, computer-controlled in vitro model of the adult human colon. TIM-2 simulates to a high degree the successive dynamic processes in the colon and is predictive for what happens in human individuals. The following in vivo conditions are simulated in this model: body temperature, pH in the lumen, composition and rate of secretion, delivery of a pre-digested substrate from the ‘ileum’ (SIEM), mixing and transport of the intestinal contents, absorption of water and microbial metabolites and presence of a complex, high density, metabolically active, anaerobic fecal microbiota of human origin. The model was set-up and inoculated with the microbiota on the first day. Following an overnight adaptation period in SIEM, the test-products were fed at final concentrations of 1.4 mg/ml EPA/DHA-Lys or 1 mg/ml L-rhamnose in SIEM during an intervention period of 72 hrs. Cultivation in SIEM without any additional substance served as control condition. Samples were taken from the lumen and the dialysate every 24 hrs (t0, t24, t48 and t72) to study the metabolic activity of the gut microbiota (SCFA production) and changes in composition of the gut microbiota (16S rRNA gene analysis). Samples were analyzed for SCFA by ion-chromatography. […] The order of Pr/Ac for the 72 h treatments is control (SIEM)<L-rhamnose<EPA/DHA-Lys (ω-3)<L-rhamnose+EPA/DHA-Lys (ω-3).

[6] = system: human fecal microbiota; assay: I-screen intestinal screening model, SCFA production (Example 1); assay type: cell-based; conditions: 24 h incubation, mean of triplicates
Experimental: as §1, with “previously. These standard adult gut microbiota sets were stored at −80° C. in 12% glycerol.” for “previously.”
as §2, §3, §4

## CCCC(=O)O [butyrate]
[1]
  Systemic availability of colonic SCFA: ~2%

## N=C(N)NCCC[C@H](N)C(=O)O [Arg, L-arginine]
[2]
  Propionate/acetate ratio: 0.40
  Acetate, change compared to control: +8.29 mM
  Propionate, change compared to control: +2.02 mM
  n-Butyrate, change compared to control: +0.71 mM

## CC(=O)O [acetate]
[1]
  Systemic availability of colonic SCFA: ~36%

## NCCC[C@H](N)C(=O)O [Orn, L-ornithine]
[2]
  Propionate/acetate ratio: 0.36
  Acetate, change compared to control: +10.15 mM
  Propionate, change compared to control: +1.74 mM
  n-Butyrate, change compared to control: +0.19 mM

## C[C@H](O)[C@H](O)[C@@H](O)[C@@H](O)C=O [rhamnose, L-rhamnose]
[3]; 0 h
  Cumulative production of acetate: 0.00 mmol
  Cumulative production of butyrate: 0.00 mmol
  Cumulative production of propionate: 0.00 mmol
[3]; 24 h
  Pr/Ac (propionate-to-acetate ratio): 0.57
  Cumulative production of acetate: 25.30 mmol
  Cumulative production of butyrate: 15.69 mmol
  Cumulative production of propionate: 14.30 mmol
[3]; 48 h
  Pr/Ac (propionate-to-acetate ratio): 0.56
  Cumulative production of acetate: 56.28 mmol
  Cumulative production of butyrate: 35.02 mmol
  Cumulative production of propionate: 31.64 mmol
[3]; 72 h
  Pr/Ac (propionate-to-acetate ratio): 0.56
  Cumulative production of acetate: 81.62 mmol
  Cumulative production of butyrate: 52.10 mmol
  Cumulative production of propionate: 45.41 mmol
[3]; microbiota 2, average
  Ratio of SCFA: acetate as percentage of acetate + propionate + butyrate: 45.7%
  Ratio of SCFA: butyrate as percentage of acetate + propionate + butyrate: 29.0%
  Ratio of SCFA: propionate as percentage of acetate + propionate + butyrate: 25.3%
[4]; acute intake of 25 g L-rhamnose
  Circulating propionate after L-rhamnose: significant increase
[4]; up to 25.5 g L-rhamnose/day for seven days
  Serum propionate after L-rhamnose: no increase
[5]; 0 h
  Cumulative production of acetate: 0.00 mmol
  Cumulative production of butyrate: 0.00 mmol
  Cumulative production of propionate: 0.00 mmol
[5]; 24 h
  Pr/Ac (propionate-to-acetate ratio): 0.57
  Cumulative production of acetate: 25.30 mmol
  Cumulative production of butyrate: 15.69 mmol
  Cumulative production of propionate: 14.30 mmol
[5]; 48 h
  Pr/Ac (propionate-to-acetate ratio): 0.56
  Cumulative production of acetate: 56.28 mmol
  Cumulative production of butyrate: 35.02 mmol
  Cumulative production of propionate: 31.64 mmol
[5]; 72 h
  Pr/Ac (propionate-to-acetate ratio): 0.56
  Cumulative production of acetate: 81.62 mmol
  Cumulative production of butyrate: 52.10 mmol
  Cumulative production of propionate: 45.41 mmol
[5]; microbiota 1, average
  Ratio of SCFA: acetate as percentage of acetate + propionate + butyrate: 51.1%
  Ratio of SCFA: butyrate as percentage of acetate + propionate + butyrate: 28.1%
  Ratio of SCFA: propionate as percentage of acetate + propionate + butyrate: 20.8%

## Inulin
[6]
  n-Butyrate, change compared to control: +0.46 mM
[6]; controls ~8 mM propionate
  Propionate, change compared to control: +0.03 mM
[6]; controls ~40 mM acetate
  Acetate, change compared to control: +5.87 mM

## NCCCC[C@H](N)C(=O)O [Lys, L-lysine]
[2]
  Propionate/acetate ratio: 0.40
  Acetate, change compared to control: +8.81 mM
  Propionate, change compared to control: +2.12 mM
  n-Butyrate, change compared to control: +0.29 mM
